ChEMBL document CHEMBL5634136 (Eur J Med Chem, 2023)

How the values were obtained:
[1] = Antiproliferative activity against mouse KC-0122 cells assessed as inhibition of cell growth incubated for 72 hrs by MTT assay; format: functional, cell-based; conditions: KC-0122, 72 h
[2] = Antiproliferative activity against mouse KC-0116 cells assessed as inhibition of cell growth incubated for 72 hrs by MTT assay; format: functional, cell-based; conditions: KC-0116, 72 h
HepG2 = experiment: Antiproliferative activity against human HepG2 cells harboring VEGFR assessed as inhibition of cell growth incubated for 72 hrs by MTT assay; format: functional, cell-based; conditions: HepG2, 72 h
[3] = target: Epidermal growth factor receptor (Mus musculus) (UniProt Q01279); experiment: Inhibition of EGFR in mouse KC-0116 cells assessed as downregulation of ERK protein expression level incubated for 24 hrs by Western blotting analysis; format: cell-based
Sequence of Epidermal growth factor receptor (Mus musculus) (Q01279 whole entry): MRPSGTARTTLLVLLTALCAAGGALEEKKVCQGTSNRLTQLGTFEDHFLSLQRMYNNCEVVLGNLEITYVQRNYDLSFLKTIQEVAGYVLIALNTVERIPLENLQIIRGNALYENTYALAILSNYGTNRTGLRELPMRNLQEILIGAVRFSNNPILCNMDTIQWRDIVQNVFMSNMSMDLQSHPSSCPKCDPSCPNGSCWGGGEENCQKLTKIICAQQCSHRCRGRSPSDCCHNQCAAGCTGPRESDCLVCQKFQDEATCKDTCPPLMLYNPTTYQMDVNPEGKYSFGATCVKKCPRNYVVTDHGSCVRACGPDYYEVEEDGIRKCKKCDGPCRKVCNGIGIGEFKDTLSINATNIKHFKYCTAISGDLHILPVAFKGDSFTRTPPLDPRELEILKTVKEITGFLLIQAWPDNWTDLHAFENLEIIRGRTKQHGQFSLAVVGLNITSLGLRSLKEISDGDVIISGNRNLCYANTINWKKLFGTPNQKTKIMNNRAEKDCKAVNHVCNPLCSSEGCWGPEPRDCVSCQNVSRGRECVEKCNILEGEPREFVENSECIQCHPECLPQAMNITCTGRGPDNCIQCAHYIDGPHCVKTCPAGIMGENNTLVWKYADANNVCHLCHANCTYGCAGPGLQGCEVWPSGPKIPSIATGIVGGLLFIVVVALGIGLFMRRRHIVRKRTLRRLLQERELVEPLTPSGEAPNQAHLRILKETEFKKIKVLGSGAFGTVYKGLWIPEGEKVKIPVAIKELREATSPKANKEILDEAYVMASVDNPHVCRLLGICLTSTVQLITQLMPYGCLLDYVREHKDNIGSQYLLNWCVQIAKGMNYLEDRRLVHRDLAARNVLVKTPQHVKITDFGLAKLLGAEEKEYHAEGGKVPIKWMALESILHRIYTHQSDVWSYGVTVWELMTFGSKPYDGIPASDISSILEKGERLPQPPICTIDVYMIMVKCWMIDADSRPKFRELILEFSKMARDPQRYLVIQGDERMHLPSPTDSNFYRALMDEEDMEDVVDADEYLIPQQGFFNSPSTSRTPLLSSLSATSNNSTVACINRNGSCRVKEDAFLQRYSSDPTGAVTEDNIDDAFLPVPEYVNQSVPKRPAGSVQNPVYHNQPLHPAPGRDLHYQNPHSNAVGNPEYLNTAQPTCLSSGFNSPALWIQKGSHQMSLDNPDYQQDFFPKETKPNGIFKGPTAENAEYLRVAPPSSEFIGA

[4] = target: Epidermal growth factor receptor (Mus musculus) (UniProt Q01279); experiment: Inhibition of EGFR in mouse KC-0116 cells assessed as downregulation of EGFR phosphorylation level incubated for 24 hrs by Western blotting analysis; format: cell-based
NCI-H1975 = experiment: Antiproliferative activity against human NCI-H1975 cells harboring EGFR L858R/T790M mutant assessed as inhibition of cell growth incubated for 72 hrs by MTT assay; format: functional, cell-based; conditions: NCI-H1975, 72 h
A-431 = experiment: Antiproliferative activity against human A-431 cells harboring wild type EGFR assessed as inhibition of cell growth incubated for 72 hrs by MTT assay; format: functional, cell-based; conditions: A-431, 72 h
[5] = target: Epidermal growth factor receptor (Mus musculus) (UniProt Q01279); experiment: Inhibition of EGFR in mouse KC-0116 cells assessed as downregulation of AKT protein expression level incubated for 24 hrs by Western blotting analysis; format: cell-based
[6] = target: Epidermal growth factor receptor (Mus musculus) (UniProt Q01279); experiment: Inhibition of EGFR in mouse KC-0122 cells assessed as downregulation of EGFR phosphorylation level incubated for 24 hrs by Western blotting analysis; format: cell-based
[7] = target: Epidermal growth factor receptor (Mus musculus) (UniProt Q01279); experiment: Inhibition of EGFR in mouse KC-0122 cells assessed as downregulation of AKT protein expression level incubated for 24 hrs by Western blotting analysis; format: cell-based
[8] = target: Epidermal growth factor receptor (Mus musculus) (UniProt Q01279); experiment: Inhibition of EGFR in mouse KC-0122 cells assessed as downregulation of ERK protein expression level incubated for 24 hrs by Western blotting analysis; format: cell-based
HCC827 = experiment: Antiproliferative activity against human HCC827 cells harboring EGFR Del19 mutant assessed as inhibition of cell growth incubated for 72 hrs by MTT assay; format: functional, cell-based; conditions: HCC827, 72 h
[9] = Induction of apoptosis in mouse KC-0116 cells assessed as viable cells at 1 uM incubated for 48 hrs by annexin V-FITC/ PI staining based flow cytometry (reference value: 93.27 %); format: functional
[10] = Induction of apoptosis in mouse KC-0116 cells assessed as late apoptotic cells at 0.3 uM incubated for 48 hrs by annexin V-FITC/ PI staining based flow cytometry (reference value: 1 %); format: functional
[11] = Toxicity in BALB/c mouse xenografted with mouse KC-0116 cells assessed as change in body weight at 10 mg/kg,po administrated once daily for 10 days; format: organism-based; conditions: in vivo, 240 h, time 10 day
[12] = Induction of apoptosis in mouse KC-0116 cells assessed as necrotic cells at 0.3 uM incubated for 48 hrs by annexin V-FITC/ PI staining based flow cytometry (reference value: 0.04 %); format: functional
[13] = Induction of apoptosis in mouse KC-0116 cells assessed as necrotic cells at 1 uM incubated for 48 hrs by annexin V-FITC/ PI staining based flow cytometry (reference value: 0.04 %); format: functional
[14] = Induction of apoptosis in mouse KC-0116 cells assessed as early apoptotic cells at 0.3 uM incubated for 48 hrs by annexin V-FITC/ PI staining based flow cytometry (reference value: 8.09 %); format: functional
[15] = Induction of apoptosis in mouse KC-0116 cells assessed as early apoptotic cells at 1 uM incubated for 48 hrs by annexin V-FITC/ PI staining based flow cytometry (reference value: 8.09 %); format: functional
[16] = Induction of apoptosis in mouse KC-0116 cells assessed as viable cells at 0.3 uM incubated for 48 hrs by annexin V-FITC/ PI staining based flow cytometry (reference value: 93.27 %); format: functional
[17] = Induction of apoptosis in mouse KC-0116 cells assessed as late apoptotic cells at 1 uM incubated for 48 hrs by annexin V-FITC/ PI staining based flow cytometry (reference value: 1 %); format: functional

| SMILES | IC50 [1] | IC50 [2] | also measured |
| --- | --- | --- | --- |
| CN(C)C1CCN(c2ccc(Nc3nccc(-c4cn(C)c5ccccc45)n3)cc2NC(=O)CN)CC1 | 460 nM | 440 nM |  |
| COc1ccc(NC(=O)CCN)cc1Nc1nccc(-c2cn(C)c3ccccc23)n1 | 1230 nM | 1460 nM |  |
| COc1cc(N2CCN(C)CC2)c(NC(=O)CN)cc1Nc1nccc(-c2cn(C)c3ccccc23)n1 | 1170 nM | 1650 nM |  |
| Cn1cc(-c2ccnc(Nc3cccc(NC(=O)CCN)c3)n2)c2ccccc21 | 4770 nM | 4990 nM |  |
| CN1CCN(C2CCN(c3ccc(Nc4nccc(-c5cn(C)c6ccccc56)n4)cc3NS(=O)(=O)C3CC3)CC2)CC1 | 200 nM | 170 nM | IC50 (HepG2): 1500 nM; inhibition [3]: Dose-Dependent Effect; inhibition [4]: Dose-Dependent Effect; IC50 (NCI-H1975): 1020 nM; IC50 (A-431): 2130 nM; inhibition [5]: Dose-Dependent Effect; inhibition [6]: Dose-Dependent Effect; inhibition [7]: Dose-Dependent Effect; inhibition [8]: Dose-Dependent Effect; IC50 (HCC827): 310 nM |
| COCC(=O)Nc1cc(Nc2nccc(-c3cn(C)c4ccccc34)n2)c(OC)cc1N1CCC(N(C)C)CC1 | 450 nM | 460 nM |  |
| Cn1cc(-c2ccnc(Nc3ccc(N4CCC(N5CCOCC5)CC4)cc3)n2)c2ccccc21 | 5740 nM | 1710 nM |  |
| CN1CCN(c2ccc(Nc3nccc(-c4cn(C)c5ccccc45)n3)cc2)CC1 | 540 nM | 380 nM |  |
| COc1cc(N(C)CCN(C)C)c(NC(=O)CCN)cc1Nc1nccc(-c2cn(C)c3ccccc23)n1 | 1630 nM | 1490 nM |  |
| COc1cc(OCCN(C)C)c(NC(=O)CN)cc1Nc1nccc(-c2cn(C)c3ccccc23)n1 | 5450 nM | 1500 nM |  |
| Cn1cc(-c2ccnc(Nc3ccc(N4CCCCC4)cc3)n2)c2ccccc21 | > 10000 nM | > 10000 nM |  |
| COc1cc(N(C)CCN(C)C)c(NC(=O)CNC(=O)OC(C)(C)C)cc1Nc1nccc(-c2cn(C)c3ccccc23)n1 | 1280 nM | 1290 nM |  |
| COc1cc(N(C)CCN(C)C)c(NC(=O)CO)cc1Nc1nccc(-c2cn(C)c3ccccc23)n1 | 3090 nM | 1390 nM |  |
| Cn1cc(-c2ccnc(Nc3cccc(NS(=O)(=O)C4CC4)c3)n2)c2ccccc21 | 1200 nM | 580 nM |  |
| CN(C)C1CCN(c2ccc(Nc3nccc(-c4cn(C)c5ccccc45)n3)cc2NS(=O)(=O)C2CC2)CC1 | 250 nM | 240 nM | IC50 (HepG2): 1920 nM; IC50 (NCI-H1975): 1420 nM; IC50 (A-431): 2490 nM; IC50 (HCC827): 220 nM |
| COc1cc(N(C)CCN(C)C)c(NC(=O)CNC(C)=O)cc1Nc1nccc(-c2cn(C)c3ccccc23)n1 | 1450 nM | 1980 nM |  |
| COc1cc(N(C)CCN(C)C)ccc1Nc1nccc(-c2cn(C)c3ccccc23)n1 | 1610 nM | 1760 nM |  |

| SMILES | IC50 [1] | IC50 [2] | also measured |
| --- | --- | --- | --- |
| CN(C)CCN(C)c1ccc(Nc2nccc(-c3cn(C)c4ccccc34)n2)cc1 | 1550 nM | 1060 nM |  |
| CN(C)C1CCN(c2ccc(Nc3nccc(-n4cc(NC(=O)c5ccccc5)cn4)n3)cc2NS(C)(=O)=O)CC1 | 490 nM | 520 nM |  |
| C=CC(=O)Nc1cc(Nc2nccc(-c3cn(C)c4ccccc34)n2)c(OC)cc1N(C)CCN(C)C [OSIMERTINIB] |  | […] | IC50 (HepG2): 3060 nM; IC50 (A-431): […]; IC50 (HCC827): 1 nM |
| COc1cc(N(C)CCN(C)C)c(NC(=O)CN)cc1Nc1nccc(-c2cn(C)c3ccccc23)n1 | 2720 nM | 1320 nM |  |
| Cn1cc(-c2ccnc(Nc3ccc(N4CCOCC4)cc3)n2)c2ccccc21 | > 10000 nM | 7000 nM |  |
| CC(=O)N1CCN(c2ccc(Nc3nccc(-c4cn(C)c5ccccc45)n3)cc2)CC1 | 1500 nM | 1050 nM |  |
| CN(C)C1CCN(c2ccc(Nc3nccc(-c4cn(C)c5ccccc45)n3)cc2)CC1 | 450 nM | 400 nM |  |
| COc1cc(N2CCC(N3CCN(C)CC3)CC2)ccc1Nc1ncc(Cl)c(Nc2ccccc2P(C)(C)=O)n1 [BRIGATINIB] | 450 nM | 350 nM | Activity [9]: 65.74%; Activity [10]: 1.71%; Activity [11]: Non-Toxic; Activity [12]: 0.01%; Activity [13]: 0.32%; Activity [14]: 6.75%; Activity [15]: 26.61%; Activity [16]: 92.51%; Activity [17]: 7.32% |
| CN(C)CCOc1ccc(Nc2nccc(-c3cn(C)c4ccccc34)n2)cc1 | 1750 nM | 1290 nM |  |
| COc1cc(N2CCC(N3CCN(C)CC3)CC2)ccc1Nc1nccc(-c2cn(C)c3ccccc23)n1 | 1390 nM | 1170 nM |  |
| CN1CCN(C2CCN(c3ccc(Nc4nccc(-c5cn(C)c6ccccc56)n4)cc3)CC2)CC1 | 1310 nM | 840 nM |  |
| COc1cc(N2CCC(N(C)C)CC2)c(NC(=O)CO)cc1Nc1nccc(-c2cn(C)c3ccccc23)n1 | 480 nM | 460 nM |  |
| COc1ccc(NC(=O)CN)cc1Nc1nccc(-c2cn(C)c3ccccc23)n1 | 5280 nM | 3760 nM |  |
| COc1cc(N(C)CCN(C)C)c(NC(=O)CNS(C)(=O)=O)cc1Nc1nccc(-c2cn(C)c3ccccc23)n1 | 1170 nM | 1550 nM |  |
| COc1cc2c(cc1Nc1nccc(-c3cn(C)c4ccccc34)n1)NC(=O)CCCCCN2CCN(C)C | 2840 nM | 2360 nM |  |
| CN(C)CCN(c1ccc(Nc2nccc(-c3cn(C)c4ccccc34)n2)cc1)S(C)(=O)=O | 500 nM | 430 nM |  |
